Tests used:
[1] = test system: intracellular S. aureus strain ISP479C in human brain microvascular endothelial cells (hBMEC); assay: Intracellular S. aureus eradication assay in hBMEC; type: cell-based; settings: 5 μg/ml, 1 h
Text: FIGS. 5a-5e depict peptidoglycan hydrolase-protein transduction domain (PGH-PTD) eradication of intracellular S. aureus in cultured cells. Cultured cells were infected, treated with gentamicin to kill extracellular S. aureus, and then treated with the peptidoglycan hydrolases indicated. All results are standardized to the gentamicin (GENT) only control. Nomenclature of the peptidoglycan hydrolase constructs is as in FIG. 1. Asterisks indicate statistical significance detected with single factor ANOVA (α=0.05) with paired t-test posthoc analyses α=0.05 adjusted with Sidák correction for multiple comparisons (for all cases p<0.01). […] Error bars represent SEM. […] Yellow staining in the combined panel represents intracellular co-localization (in a single plane as determined by z-stack analysis) of both S. aureus and K-L-PTD1 (blue arrow). […]
Three similar intracellular S. aureus eradication assays from three different labs were optimized for (A) a cultured bovine mammary epithelial cell line (MAC-T, Nexia Biotechnologies, Quebec, Canada; Almeida, supra), (B) primary C57BL/6 mouse-derived osteoblasts (mOBs) (McCall et al. 2008. J. Bone Miner. Res. 23: 30-40) or (C) human brain microvascular endothelial cells (hBMEC; Stins, supra). […] The cell lysate was subjected to serial dilution plating, and the resultant CFUs were counted and normalized to the gentamicin control for each assay. […]

[2] = test system: S. aureus strain ALR; assay: Rat nasal colonization model; type: in vivo, Wistar rats
Text: FIGS. 1a-1c depict peptidoglycan hydrolase construct schematics, resistance development and effectiveness in eradicating S. aureus carriage in a rat colonization model. FIG. 1a is a schematic of the peptidoglycan hydrolase constructs. Domains: CHAP endopeptidase (CHAP, red box); N-acetylmuramoyl-L-alanine amidase (AMID, green box); M23 endopeptidase (PEP, blue oval); CBDs (LysK SH3b, gold diamond; lysostaphin SH3b, gold diamond with dot); protein transduction domain (PTD, blue circle); hexahistidine purification tag (His6). Domains are not to scale. Specific peptidoglycan cut sites are illustrated in FIG. 3a. FIG. 1b depicts in vitro antimicrobial resistance development. Engineered triple fusions K-L and L-K suppress antimicrobial resistance development compared to LysK (K), lysostaphin (L), or a combination of equimolar concentrations of both (L+K). Changes in Minimum Inhibitory Concentrations (MIC) are depicted as a fold-change at the tenth round of sublethal exposure compared to the first exposure, with the average fold-change of 4 replicates in red. Error bars=SEM. First exposure MICs: Lysostaphin, 0.77 μg/ml (27 nM); LysK, 47 μg/ml (840 nM); Lysostaphin and LysK (L+K) in combination 0.2 μg/ml (7 nM and 3 nM, respectively); triple fusion K-L, 7 μg/ml (97 nM); triple fusion L-K, 7.8 μg/ml (107 nM). FIG. 1c depicts reduction in colonization in a rat nasal carriage model. Rats were inoculated with S. aureus strain ALR on Day 1. After 5 days, the rats were treated twice daily for 3 days with 20 μl of a 10 mg/ml solution of each enzyme. The rat noses were excised on day 10, homogenized, and quantitative cultures were performed. Each point represents the CFU recovered from an individual rat. Bars indicate the median CFU/nose recovered from treated rats. […] Data were compiled from five independent experiments. Lyso=commercially purchased lysostaphin (AMBI, Tarrytown, N.Y.). Statistical comparisons were made with the Mann-Whitney test. SEQ ID NOs of depicted peptidoglycan hydrolase constructs: Lysostaphin (SEQ ID NO:1); Lysostaphin-PTD1-4, 6-12 (SEQ ID NOs:9, 11, 13, 15, 17, 19, 21, 23, 25, 27, 29, respectively); LysK (SEQ ID NO:3); LysK-PTD1-11 (SEQ ID NOs: 31, 33, 35, 37, 39, 41, 43, 45, 47, 49, 51, respectively); LysK-Lysostaphin Fusion K-L (SEQ ID NO:5); K-L-PTD1-4, 6-11 (SEQ ID NOs:53, 55, 57, 59, 61, 63, 65, 67, 69, 71, respectively); Lysostaphin-LysK Fusion L-K (SEQ ID NO:7).
Reduction in nasal colonization was observed when rats were challenged on day 0 with 10^7 CFU S. aureus strain ALR and then treated twice per day on days 5, 6, and 7 with 10 μl of 2% mupirocin calcium ointment (Bactroban Nasal) or petrolatum/softisan placebo. Noses from rats were homogenized and cultured quantitatively on day 10. Each point represents the CFU recovered from an individual rat, and the data were compiled from two independent experiments. Data were analyzed by the Mann-Whitney test, and horizontal lines represent median values. Mupirocin reduced colonization ˜98% compared to the placebo control.
The rat nasal colonization model is an adaptation of the mouse nasal colonization model that we described previously (Schaffer et al. 2006. Infect. Immun. 74:2145-2153). All animal experiments were conducted in accordance with a protocol approved by the appropriate Institutional Animal Care and Use Committees. Wistar rats (5 to 6 wks of age) were obtained from Charles River Laboratories (Wilmington, Mass.) and given food and water ad libitum. The animals were housed two per cage in a modified barrier facility under viral antibody-free conditions. The rats were given drinking water containing streptomycin sulfate (0.5 g/liter; Sigma) 1 day prior to bacterial inoculation and for the course of the experiment. The drinking water and cages were changed three times per week. […]

[3] = test system: S. aureus strain Newman; type: cell-based; settings: tenth round compared to first exposure
Description: For the MIC repeated exposure method, MIC determinations were performed with S. aureus strain Newman. 100 μl of S. aureus strain Newman culture that survived at ½ the MIC (the first well with visible growth) for each round was inoculated into 5 ml TSB and cultivated to mid-log phase growth. This culture was used as the inoculum for the next round of MIC exposure (overnight growth), and the cycle was repeated for 10 rounds.
Development of resistance to the triple-acting fusion enzymes was tested on S. aureus strain Newman and compared to both parental enzymes applied individually or simultaneously. […] Survivors of the ten round exposure to peptidoglycan hydrolase were passaged five times in medium with no peptidoglycan hydrolase added. […] We compared our triple-acting fusions to small molecule antibiotics in similar assays.

[4] = test system: S. aureus Newbould 305; assay: Turbidity reduction assay; type: cell-based; settings: 1 μM enzyme, cells at OD600nm 1.0, FIG. 6a
Description: (§1) FIG. 6a depicts the specific activity of peptidoglycan hydrolase fusion constructs in vitro in a turbidity reduction assay with S. aureus Newbould 305 resuspended in lysis buffer to an OD600nm of 1.0 and treated with 1 μM final concentrations of each peptidoglycan hydrolase. The maximum specific activity for three experiments are represented as an average with SEM error bars. FIG. 6b depicts the bacterial burden in mice with mastitis treated with recombinant peptidoglycan hydrolases. Colony Forming Units (CFUs) from infected murine mammary glands following a single treatment with 50 μl of 25 μM peptidoglycan hydrolase (1.25 nmol). Each data point represents the average of duplicate bacterial platings. The horizontal bars represent the average CFU/mg for each group. FIG. 6c illustrates the TNFα response in mice with mastitis that were treated with peptidoglycan hydrolases. Data represents a minimum of 7 measurements in duplicate. Log TNFα was used for statistical analysis. Single asterisks indicate a significant difference from buffer control (p<0.05); double asterisks indicate a significant difference from the parental enzyme (p<0.05).
FIG. 7 depicts a turbidity reduction assay of select peptidoglycan hydrolases against S. aureus Newbould 305. Bacterial cells were resuspended in lysis buffer to an OD600nm of 1.0 and lysed with 1 μM final concentrations of each peptidoglycan hydrolase. The maximum rate of ΔOD of three experiments are represented as an average with error bars representing SEM. Double asterisks indicate significant difference from parental. Mean comparisons were performed with one way ANOVA (P=3.3×10^−5) with t test post hoc analysis with Sidák adjusted alpha (p<0.01).

[5] = test system: S. aureus Newbould 305; assay: Murine model of mastitis, bacterial load; type: in vivo, C57BL6/SJL mice; settings: single 1.25 nmoles intramammary infusion 30 minutes post infection, 18 h
Description: as §1
To evaluate the efficacy of purified, individually administered peptidoglycan hydrolases in a murine model of bovine mastitis, female C57BL6/SJL mice were challenged by the intramammary route with 100 CFU S. aureus Newbould 305 in 50 μl buffer. A single 1.25 nmoles intramammary infusion of each desired peptidoglycan hydrolase (50 μl of a 25 μM solution) or 50 μl PBS was given 30 minutes post infection [with up to six glands treated per animal, each gland receiving a unique treatment] as described earlier (Schmelcher et al. 2012. Appl. Environ. Microbiol. 78:2297-2305; Kerr et al. 2001. Nat. Biotechnol. 19:66-70). Dams were euthanized 18 h post infusion, the mammary glands were aseptically dissected, and portions of the gland were used for determination of bacterial load and TNFα concentrations, as described previously (Schmelcher et al., supra).
Statistical analysis: The variables were analyzed as two-factor mixed models with Treatment as the factor and Mouse as random Blocks. This model […] within mouse correlations. Log(TNFα) was used. The variance grouping technique was used for log CFU and log TNFα to correct for variance heterogeneity. Means comparisons were done with Sidak adjusted p-values so that the experiment-wise error was 0.05. Log(TNFα) is back-transformed to the original units for graphing.

1-PTD12: lysostaphin with PTD 12 (TAT 49-57); SEQ ID NO:29
intracellular S. aureus CFUs relative to gentamicin only control [1]: reduce the intracellular S. aureus strain ISP479C

C/C(=C\C(=O)OCCCCCCCCC(=O)O)C[C@@H]1OC[C@H](C[C@@H]2O[C@H]2[C@@H](C)[C@H](C)O)[C@@H](O)[C@H]1O [Mupirocin, mupirocin, reference compound]
reduction in nasal colonization compared to placebo control ([2]; 10 μl of 2% mupirocin calcium ointment twice per day on days 5, 6, 7, separate experiment): 98%

[H]/N=C(/N)N[C@H]1[C@H](O)[C@@H](O)[C@H](O[C@@H]2O[C@@H](C)[C@](O)(C=O)[C@H]2O[C@@H]2O[C@@H](CO)[C@H](O)[C@@H](O)[C@@H]2NC)[C@@H](N/C(N)=N\[H])[C@@H]1O [streptomycin, reference compound]
increase in MIC after 10 rounds of sub-lethal exposure [3]: 13 fold

L-PTD9: lysostaphin with PTD 9 (TAT 48-60); SEQ ID NO:23
turbidity reduction (in vitro lytic) activity [4]: virtually inactive
turbidity reduction (in vitro lytic) activity ([4]; listed as 1-PTD9): reduced the in vitro activity
bacterial load / clearance of mammary glands (in words) [5]: capable of reducing bacterial load within the mouse mammary glands relative to the PBS buffer control

Trimethoprim/sulfamethoxazole [reference compound]
increase in MIC after 10 rounds of sub-lethal exposure [3]: 6 fold

lysostaphin (AMBI, Tarrytown, N.Y.): commercially purchased lysostaphin (AMBI, Tarrytown, N.Y.)
decrease in CFU/nose (nasal colonization) compared to rats treated with buffer ([2]; 200 μg intranasally twice a day on days 5, 6, 7, noses cultured day 10): 87%

Source: patent publication US20160097044A1, “Antimicrobial Enzyme Fusions Reduce Resistance and Kill Intracellular Staphylococcus aureus” (The United States of America, as Represented by the …, priority 2014, published 2016)
